The text below walks through data of patent US9528155B2, “In vitro method for determining immunotoxicity of a compound” (UNIVERSITEIT MAASTRICHT, priority 2012, dated 2016).

Holding throughout (assay type): cell-based, human
In assay [1] the test system is CRIM1. The experiment in a line: Fluidigm multiplex real-time quantitative PCR of marker gene CRIM1 in exposed Jurkat cells.
Assay [2] deals with ABCA1. The experiment in a line: Fluidigm multiplex real-time quantitative PCR of marker gene ABCA1 in exposed Jurkat cells.
For assay [3], the system named is CHAC1. Nature of the assay: Fluidigm multiplex real-time quantitative PCR of marker gene CHAC1 in exposed Jurkat cells.
Assay [4] concerns HMGCS1. Nature of the assay: Fluidigm multiplex real-time quantitative PCR of marker gene HMGCS1 in exposed Jurkat cells.
Setting [5] is: Jurkat cells, 6 h exposure at sub-cytotoxic exposure conc. of Tables 1/2, vs vehicle control, N=3, below -1.0 = underexpression.

Like-named read-outs stand apart in the source and are kept apart here.

In the case of `O=[N+]([O-])c1ccc2ccc3cccc4ccc1c2c34` [1-NPR, 1-Nitropyrene], the “Expression levels of marker genes upon exposure: CRIM1 (Fold Change)” value (shortened to “Expression levels … CRIM1 (Fold Change)”) in assay [1] is given as 1.3 ± 1.6. Moreover, the “Expression levels of marker genes upon exposure: ABCA1 (Fold Change)” value (“Expression levels … ABCA1 (Fold Change)” for short) in assay [2] was found to be 1.3 ± 1.2.

Regarding `Sc1ncnc2nc[nH]c12` [6MP, 6-mercaptopurine], in assay [1] (setting [5]), the “Expression levels … CRIM1 (Fold Change)” value is listed as 1.0 ± 0.6. The “Expression levels of marker genes upon exposure: CHAC1 (Fold Change)” value (from here on “Expression levels … CHAC1 (Fold Change)”) in assay [3] (setting [5]) is 1.8 ± 1.1.

For the molecule `CC1(C)S[C@@H]2[C@H](NC(=O)[C@H](N)c3ccccc3)C(=O)N2[C@H]1C(=O)O` [AMP, ampicillin], in assay [1] (setting [5]), the “Expression levels … CRIM1 (Fold Change)” value turned out to be 1.2 ± 1.1. Besides, the “Expression levels of marker genes upon exposure: HMGCS1 (Fold Change)” value (from here on “Expression levels … HMGCS1 (Fold Change)”) in assay [4] (setting [5]) amounted to 1.4 ± 0.3.

As to `Cn1cnc([N+](=O)[O-])c1Sc1ncnc2nc[nH]c12` [AZA, azathioprine], the “Expression levels … CRIM1 (Fold Change)” value in assay [1] (setting [5]) was found to be 1.8 ± 1.0. In assay [3] (setting [5]), the “Expression levels … CHAC1 (Fold Change)” value stood at 2.3 ± 2.1. Also, the “Expression levels … HMGCS1 (Fold Change)” value in assay [4] (setting [5]) came to 1.1 ± 0.2.

`O=[N+]([O-])[O-].[Ag+]` [AgNO3, silver nitrate]: in assay [1] (setting [5]), the “Expression levels … CRIM1 (Fold Change)” value was 1.1 ± 0.3. In addition, the “Expression levels … CHAC1 (Fold Change)” value in assay [3] (setting [5]) is reported as −1.1 ± 0.5. Also, the “Expression levels … HMGCS1 (Fold Change)” value in assay [4] (setting [5]) was 1.6 ± 0.9. Moreover, in assay [2] (setting [5]), the “Expression levels … ABCA1 (Fold Change)” value amounted to 1.5 ± 1.2.

Take `O=P1(N(CCCl)CCCl)NCCCO1` (stereo not shown) [CP S9, cyclophosphamide]: in assay [1] (setting [5]), the “Expression levels … CRIM1 (Fold Change)” value was 1.1 ± 0.3. Further, the “Expression levels … HMGCS1 (Fold Change)” value in assay [4] (setting [5]) is 2.0 ± 1. In assay [2] (setting [5]), the “Expression levels … ABCA1 (Fold Change)” value is recorded as 1.9 ± 1.6.

With `[Cl][Cd][Cl]` [CdCl2, cadmium dichloride], in assay [1] (setting [5]), the “Expression levels … CRIM1 (Fold Change)” value is given as 4.3 ± 2.0. The “Expression levels … CHAC1 (Fold Change)” value in assay [3] (setting [5]) amounted to 7.0 ± 1.5. The “Expression levels … HMGCS1 (Fold Change)” value in assay [4] (setting [5]) was found to be 2.2 ± 1.3. In addition, the “Expression levels … ABCA1 (Fold Change)” value in assay [2] (setting [5]) came to 1.3 ± 1.3.

With `CCCCC(CC)COC(=O)c1ccccc1C(=O)OCC(CC)CCCC` (stereo not shown) [DEHP, Bis(2-ethylhexyl)phthalate], in assay [1] (setting [5]), the “Expression levels … CRIM1 (Fold Change)” value was 1.9 ± 1.5. Besides, the “Expression levels … HMGCS1 (Fold Change)” value in assay [4] (setting [5]) was determined as 1.2 ± 0.1.

Regarding `C[C@@H]1C[C@H]2[C@@H]3CCC4=CC(=O)C=C[C@]4(C)[C@@]3(F)[C@@H](O)C[C@]2(C)[C@@]1(O)C(=O)CO` [DEX, dexamethasone], in assay [1] (setting [5]), the “Expression levels … CRIM1 (Fold Change)” value amounted to 1.4 ± 0.6. Also, the “Expression levels … HMGCS1 (Fold Change)” value in assay [4] (setting [5]) came to 1.0 ± 0.1.

Regarding `CN(C)N=O` [DMNA, dimethylnitrosamine], in assay [1], the “Expression levels … CRIM1 (Fold Change)” value is −12 ± 1.5. Besides, the “Expression levels … CHAC1 (Fold Change)” value in assay [3] was −1.5 ± 1.5. Also, in assay [4], the “Expression levels … HMGCS1 (Fold Change)” value is listed as 1.2 ± 1.1. Further, the “Expression levels … ABCA1 (Fold Change)” value in assay [2] is −1.8±.

`CC1=C[C@H]2O[C@@H]3[C@H](O)C[C@](C)([C@@]2(CO)[C@H](O)C1=O)[C@]31CO1` [DON, deoxynivalenol]: the “Expression levels … CRIM1 (Fold Change)” value in assay [1] (setting [5]) is listed as 1.4 ± 0.4. In assay [3] (setting [5]), the “Expression levels … CHAC1 (Fold Change)” value is given as −1.4 ± 0.4. Also, in assay [4] (setting [5]), the “Expression levels … HMGCS1 (Fold Change)” value is reported as −1.5 ± 0.3. For the same molecule, the “Expression levels … ABCA1 (Fold Change)” value in assay [2] (setting [5]) was −1.9 ± 0.2.

On to `CCO` [EtOH, ethanol], for which, in assay [3] (setting [5]), the “Expression levels … CHAC1 (Fold Change)” value stood at 34.3 ± 2.3. The “Expression levels … ABCA1 (Fold Change)” value in assay [2] (setting [5]) is given as 1.2 ± 1.0.

With `Cn1c(N)nc2c3cccnc3ccc21` [IQ, 2-amino-3-methyl-3H-imidazo[4,5-F]quinoline], in assay [1], the “Expression levels … CRIM1 (Fold Change)” value was 1.1 ± 1.8. In addition, in assay [2], the “Expression levels … ABCA1 (Fold Change)” value was found to be 1.0 ± 2.2.

For `Cl[C@H]1[C@H](Cl)[C@@H](Cl)[C@@H](Cl)[C@H](Cl)[C@H]1Cl` [LIN, Gamma-hexachlorocyclohexane], in assay [1] (setting [5]), the “Expression levels … CRIM1 (Fold Change)” value amounted to 2.3 ± 0.1. In addition, the “Expression levels … CHAC1 (Fold Change)” value in assay [3] (setting [5]) was 10.2 ± 7.6. In addition, the “Expression levels … HMGCS1 (Fold Change)” value in assay [4] (setting [5]) is recorded as −2.4 ± 0. In addition, the “Expression levels … ABCA1 (Fold Change)” value in assay [2] (setting [5]) amounted to 3.4 ± 3.6.

As for `OC[C@@H](O)[C@@H](O)[C@H](O)[C@H](O)CO` [MANNITOL], the “Expression levels … CRIM1 (Fold Change)” value in assay [1] (setting [5]) is 1.1 ± 0.7. The “Expression levels … HMGCS1 (Fold Change)” value in assay [4] (setting [5]) is given as 1.2 ± 0.3.

Turning to `C=CC(=O)NCNC(=O)C=C` [MBA, N,N′-methylenebisacrylamide], the “Expression levels … CRIM1 (Fold Change)” value in assay [1] is 1.1 ± 1.9. Further, the “Expression levels … CHAC1 (Fold Change)” value in assay [3] was 1.5 ± 2.1. Also, in assay [4], the “Expression levels … HMGCS1 (Fold Change)” value is 1.0 ± 1.1.

Take `CCCCC(CC)COC(=O)c1ccccc1C(=O)O` (stereo not shown) [MEHP, mono-(2-ethylhexyl) phthalate]: the “Expression levels … CRIM1 (Fold Change)” value in assay [1] is −1 ± 0.6. Moreover, the “Expression levels … CHAC1 (Fold Change)” value in assay [3] turned out to be 3.5 ± 2.1. In addition, the “Expression levels … HMGCS1 (Fold Change)” value in assay [4] is reported as 1.6 ± 0.9. Also, the “Expression levels … ABCA1 (Fold Change)” value in assay [2] is listed as −1.2 ± 0.1.

With `COc1c(C)c2c(c(O)c1C/C=C(\C)CCC(=O)O)C(=O)OC2` [MPA, mycophenolic acid], the “Expression levels … CHAC1 (Fold Change)” value in assay [3] (setting [5]) stood at 1.5 ± 0.9. For the same molecule, in assay [2] (setting [5]), the “Expression levels … ABCA1 (Fold Change)” value was 1.1 ± 0.7.

Take `CN(Cc1cnc2nc(N)nc(N)c2n1)c1ccc(C(=O)N[C@@H](CCC(=O)O)C(=O)O)cc1` [MTX, methotrexate]: the “Expression levels … CRIM1 (Fold Change)” value in assay [1] (setting [5]) is on record as 1.4 ± 1.1.

For `C[C@@H]1Cc2c(Cl)cc(C(=O)N[C@@H](Cc3ccccc3)C(=O)O)c(O)c2C(=O)O1` [OTA, ochratoxin A], the “Expression levels … CRIM1 (Fold Change)” value in assay [1] (setting [5]) is listed as −1.3 ± 0.1. Also, the “Expression levels … CHAC1 (Fold Change)” value in assay [3] (setting [5]) stood at 32.9 ± 14.5. The “Expression levels … HMGCS1 (Fold Change)” value in assay [4] (setting [5]) is −2.5 ± 0.1. The “Expression levels … ABCA1 (Fold Change)” value in assay [2] (setting [5]) is −2.2 ± 0.1.

Consider `Clc1cc(Cl)c(-c2cc(Cl)c(Cl)cc2Cl)cc1Cl` [PCB153, polychlorinated biphenyl 153], for which the “Expression levels … CRIM1 (Fold Change)” value in assay [1] is −1.2 ± 2.2. Also, the “Expression levels … CHAC1 (Fold Change)” value in assay [3] is recorded as 1.2 ± 3. Moreover, the “Expression levels … HMGCS1 (Fold Change)” value in assay [4] came out at 2.0 ± 1.2. Also, in assay [2], the “Expression levels … ABCA1 (Fold Change)” value came out at 1.1 ± 1.4.

As for `O=S(=O)(O)C(F)(F)C(F)(F)C(F)(F)C(F)(F)C(F)(F)C(F)(F)C(F)(F)C(F)(F)F` [PFOS], the “Expression levels … CRIM1 (Fold Change)” value in assay [1] is on record as −1.5 ± 0.4. In assay [3], the “Expression levels … CHAC1 (Fold Change)” value is given as 1.8 ± 1.5. Moreover, in assay [4], the “Expression levels … HMGCS1 (Fold Change)” value is given as −1.1 ± 0.2. The “Expression levels … ABCA1 (Fold Change)” value in assay [2] is −4.3 ± 0.2.

Turning to `C[C@]12C=CC(=O)C=C1CC[C@@H]1[C@@H]2[C@@H](O)C[C@@]2(C)[C@H]1CC[C@]2(O)C(=O)CO` [PRD, prednisolone], in assay [1] (setting [5]), the “Expression levels … CRIM1 (Fold Change)” value was determined as 3.9 ± 0.6. For the same molecule, in assay [3] (setting [5]), the “Expression levels … CHAC1 (Fold Change)” value came out at 2.7 ± 1.9. For the same molecule, in assay [4] (setting [5]), the “Expression levels … HMGCS1 (Fold Change)” value came out at 1.7 ± 0.1. In addition, the “Expression levels … ABCA1 (Fold Change)” value in assay [2] (setting [5]) amounted to 1.0 ± 0.6.

Consider `CCC(=O)Nc1ccc(Cl)c(Cl)c1` [PROP, N-(3,4-Dichloro-phenyl)propanamide], for which, in assay [1] (setting [5]), the “Expression levels … CRIM1 (Fold Change)” value amounted to 1.4 ± 0.1. Besides, in assay [2] (setting [5]), the “Expression levels … ABCA1 (Fold Change)” value worked out at 1.3 ± 1.

In the case of `CCOC(N)=O` [urethane], the “Expression levels … CRIM1 (Fold Change)” value in assay [1] (setting [5]) was determined as 1.1 ± 0.5. In addition, in assay [3] (setting [5]), the “Expression levels … CHAC1 (Fold Change)” value is given as 1.2 ± 0.4. Besides, in assay [4] (setting [5]), the “Expression levels … HMGCS1 (Fold Change)” value was determined as 1.2 ± 0.3.

For the molecule arsenic trioxide [As2O3], the “Expression levels … CRIM1 (Fold Change)” value in assay [1] (setting [5]) was 2.4 ± 1.1. Besides, the “Expression levels … CHAC1 (Fold Change)” value in assay [3] (setting [5]) amounted to 41.2 ± 32.5. Besides, the “Expression levels … HMGCS1 (Fold Change)” value in assay [4] (setting [5]) was −1.1 ± 0.2. The “Expression levels … ABCA1 (Fold Change)” value in assay [2] (setting [5]) turned out to be 1.4 ± 0.3.

Take ochratoxin A, S9-treated [OTA S9]: the “Expression levels … CRIM1 (Fold Change)” value in assay [1] (setting [5]) is reported as −1.1 ± 0.5. Moreover, in assay [3] (setting [5]), the “Expression levels … CHAC1 (Fold Change)” value is recorded as −13.8 ± 0.0. Also, the “Expression levels … HMGCS1 (Fold Change)” value in assay [4] (setting [5]) is 2.0 ± 1.0. In addition, in assay [2] (setting [5]), the “Expression levels … ABCA1 (Fold Change)” value is 1.3 ± 1.8.

Consider tributyltin oxide [TBTO], for which the “Expression levels … CRIM1 (Fold Change)” value in assay [1] (setting [5]) is recorded as −1.1 ± 0.8. The “Expression levels … CHAC1 (Fold Change)” value in assay [3] (setting [5]) is on record as −1.1 ± 0.4. For the same molecule, the “Expression levels … HMGCS1 (Fold Change)” value in assay [4] (setting [5]) is −1.5 ± 0.1. Also, the “Expression levels … ABCA1 (Fold Change)” value in assay [2] (setting [5]) turned out to be 30.9 ± 8.5.
